The values below come from PubChem BioAssay AID330 (DTP/NCI, 2004).

“And” between values parts separate entries of the source, which are not always exact repeats. Equal values may be shown once. Inconclusive results and toxic doses are left out.

This experiment concerns P388 leukemia ip, CD2F1 mice, survival T/C. Briefly: NCI In Vivo Anticancer Drug Screen. Data for tumor model P388 Leukemia (intraperitoneal) in CD2F1 (CDF1) mice. The settings on record: endpoint: median survival time, higher = longer survival. An outline of the steps:
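Mice carrying the transplanted tumor received test compound or vehicle. Survival was recorded in each group, and the value is the treated-group measurement divided by that of the vehicle-treated control group.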

Where [1] appears, read: dose: 50.0 mg/kg/injection, schedule: Q01DX009 (ip), vehicle: saline.
The mark [2] stands for this setting: dose: 100.0 mg/kg/injection, schedule: Q04DX003 (ip), vehicle: saline with Tween-80.
[3] abbreviates: dose: 200.0 mg/kg/injection, schedule: Q04DX003 (ip), vehicle: saline with Tween-80.
Setting [4] is: dose: 400.0 mg/kg/injection, schedule: Q04DX003 (ip), vehicle: saline with Tween-80.
The mark [5] stands for this setting: dose: 50.0 mg/kg/injection, schedule: Q01DX005 (ip), vehicle: saline with Tween-80.
The mark [6] stands for this setting: dose: 100.0 mg/kg/injection, schedule: Q01DX005 (ip), vehicle: saline with Tween-80.
Where [7] appears, read: dose: 200.0 mg/kg/injection, schedule: Q01DX005 (ip), vehicle: saline with Tween-80.
Where [8] appears, read: dose: 60.0 mg/kg/injection, schedule: Q01DX005 (ip), vehicle: saline with Tween-80.
[9] abbreviates: dose: 120.0 mg/kg/injection, schedule: Q01DX005 (ip), vehicle: saline with Tween-80.
The mark [10] stands for this setting: dose: 240.0 mg/kg/injection, schedule: Q01DX005 (ip), vehicle: saline with Tween-80.
The mark [11] stands for this setting: dose: 50.0 mg/kg/injection, schedule: Q01DX005 (ip), vehicle: saline.
Where [12] appears, read: dose: 100.0 mg/kg/injection, schedule: Q01DX005 (ip), vehicle: saline.
[13] abbreviates: dose: 200.0 mg/kg/injection, schedule: Q01DX005 (ip), vehicle: saline.
The mark [14] stands for this setting: dose: 50.0 mg/kg/injection, schedule: Q01DX005 (ip), vehicle: Klucel (hydroxypropylcellulose) (HPC).
Where [15] appears, read: dose: 100.0 mg/kg/injection, schedule: Q01DX005 (ip), vehicle: Klucel (hydroxypropylcellulose) (HPC).
[16] abbreviates: dose: 200.0 mg/kg/injection, schedule: Q01DX005 (ip), vehicle: Klucel (hydroxypropylcellulose) (HPC).
[17] abbreviates: dose: 100.0 mg/kg/injection, schedule: Q01DX001 (ip), vehicle: saline with Tween-80.
Where [18] appears, read: dose: 200.0 mg/kg/injection, schedule: Q01DX001 (ip), vehicle: saline with Tween-80.
[19] abbreviates: dose: 400.0 mg/kg/injection, schedule: Q01DX001 (ip), vehicle: saline with Tween-80.
The mark [20] stands for this setting: dose: 15.0 mg/kg/injection, schedule: Q01DX005 (ip), vehicle: saline with Tween-80.
Setting [21] is: dose: 30.0 mg/kg/injection, schedule: Q01DX005 (ip), vehicle: saline with Tween-80.
[22] abbreviates: dose: 50.0 mg/kg/injection, schedule: Q01DX009 (ip), vehicle: saline with Tween-80.

Turning to `Cc1nsc(Br)c1[N+](=O)[O-]`, the T/C reads like this: (dose: 25.0 mg/kg/injection, schedule: Q01DX009 (ip), vehicle: saline) 105 % of control; under setting [1], 107 % of control; (dose: 100.0 mg/kg/injection, schedule: Q01DX009 (ip), vehicle: saline) 107 % of control; under setting [2], 103 % of control; (dose: 200.0 mg/kg/injection, schedule: Q01DX009 (ip), vehicle: saline) 109 % of control; under setting [3], 108 % of control. For the same compound, the T/C under setting [4] is 115 % of control.
In the case of `COC(=O)C1CCCC(C(=O)O)C1` (centres undefined), the T/C is 102 % of control (dose: 100.0 mg/kg/injection, schedule: Q01DX002 (ip), vehicle: saline with Tween-80); 102 % of control (dose: 200.0 mg/kg/injection, schedule: Q01DX002 (ip), vehicle: saline with Tween-80); 117 % of control (dose: 400.0 mg/kg/injection, schedule: Q01DX002 (ip), vehicle: saline with Tween-80).
For the compound `Cc1c(C(=O)O)nc(C(Br)(Br)Br)[nH]c1=O`, the T/C is 94 % of control (dose: 12.5 mg/kg/injection, schedule: Q01DX009 (ip), vehicle: distilled water + Tween-80); 118 % of control (dose: 25.0 mg/kg/injection, schedule: Q01DX009 (ip), vehicle: distilled water + Tween-80); 118 % of control (dose: 50.0 mg/kg/injection, schedule: Q01DX009 (ip), vehicle: distilled water + Tween-80); 107 % of control (dose: 100.0 mg/kg/injection, schedule: Q01DX009 (ip), vehicle: distilled water + Tween-80); 107 % of control (dose: 200.0 mg/kg/injection, schedule: Q01DX009 (ip), vehicle: distilled water + Tween-80).
In the case of `C=C(CO)C(=O)OC1CC(=C)C2CC(O)C(=C)C2C2OC(=O)C(=C)C12` (centres undefined), the T/C runs as follows: (dose: 100.0 mg/kg/injection, schedule: Q01DX001 (ip), vehicle: saline) 113 % of control; (dose: 200.0 mg/kg/injection, schedule: Q01DX001 (ip), vehicle: saline) 99 % of control; (dose: 400.0 mg/kg/injection, schedule: Q01DX001 (ip), vehicle: saline) 104 % of control.
In the case of `O=[N+]([O-])c1ccc(Sc2c3ccccc3nc3ccccc23)nc1`, the T/C reads like this: (dose: 25.0 mg/kg/injection, schedule: Q01DX005 (ip), vehicle: saline with Tween-80) 108 % of control; under setting [5], 100 % of control; under setting [6], 106 % of control; under setting [7], 100 % of control.
In the case of `C/C(CC(=O)c1ccccc1)=C1\C(=O)NN(c2ccccc2)C1=O`, the T/C is 101 % of control under setting [8], 101 % of control under setting [9] and 93 % of control under setting [10].
As to `CC(C)(C)C(N)=S`, the T/C under setting [11] is 103 % of control, the T/C under setting [12] was 101 % of control and the T/C under setting [13] is 101 % of control.
Take `OCC1OC([Se])C(O)C(O)C1O.[CH3][Sb][CH3]` (centres undefined): the T/C runs as follows: under setting [8], 112 % of control; under setting [9], 104 % of control.
With `[CH3][Sn]([CH3])([n]1nnc2ccccc21)[n]1nnc2ccccc21`, the T/C is, setting by setting: (dose: 25.0 mg/kg/injection, schedule: Q01DX005 (ip), vehicle: Klucel (hydroxypropylcellulose) (HPC)) 114 % of control; under setting [14], 115 % of control and 121 % of control; under setting [15], 112 % of control and 115 % of control; under setting [16], 112 % of control.
On to `CN1C(=O)CCCCCCCCCCSc2ccccc21`, for which the T/C reads like this: under setting [14], 93 % of control; under setting [15], 97 % of control; under setting [16], 88 % of control.
`CCCn1c(Cl)c(/C=N\Nc2cccc([N+](=O)[O-])c2)c2ccccc21`: the T/C is 91 % of control under setting [17], 92 % of control under setting [18] and 91 % of control under setting [19].
With `Cc1cccc(C)c1NC(=O)Nc1cccc(C#N)c1`, the T/C was 91 % of control under setting [20], 95 % of control under setting [21], 91 % of control under setting [8] and 89 % of control under setting [10].
For `O=S(=O)(c1ccc(F)cc1)C1C(c2ccccc2)=NNC1c1ccccc1Cl` (centres undefined), the T/C runs as follows: under setting [5], 95 % of control; under setting [6], 95 % of control; under setting [7], 106 % of control.
In the case of `CCOC(=O)C1CCC(=O)N1Cc1c[nH]c2ccccc12` (centres undefined), the T/C by setting is: under setting [8], 92 % of control; under setting [9], 94 % of control; under setting [10], 94 % of control.
Take `CN(C)c1ccc(Sc2ccc3nc(N)nc(N)c3c2)cc1`: the T/C is 95 % of control under setting [22]; 174 % of control (dose: 200.0 mg/kg/injection, schedule: Q01DX009 (ip), vehicle: saline with Tween-80); 117 % of control (dose: 400.0 mg/kg/injection, schedule: Q01DX009 (ip), vehicle: saline with Tween-80).
`CCOC(=O)N1Cc2cc3ccccc3nc2C1`: the T/C is, setting by setting: (dose: 6.25 mg/kg/injection, schedule: Q01DX009 (ip), vehicle: saline with Tween-80) 107 % of control; (dose: 12.5 mg/kg/injection, schedule: Q01DX009 (ip), vehicle: saline with Tween-80) 101 % of control; (dose: 25.0 mg/kg/injection, schedule: Q01DX009 (ip), vehicle: saline with Tween-80) 101 % of control; under setting [22], 108 % of control.
As for `CN(/N=C/c1ccccc1)c1nnnn1-c1ccccc1`, the T/C (dose: 50.0 mg/kg/injection, schedule: Q01DX005 (ip), vehicle: saline + Tween-80 + alcohol) was 103 % of control; the T/C (dose: 100.0 mg/kg/injection, schedule: Q01DX005 (ip), vehicle: saline + Tween-80 + alcohol) was 97 % of control; the T/C (dose: 200.0 mg/kg/injection, schedule: Q01DX005 (ip), vehicle: saline + Tween-80 + alcohol) was 89 % of control.
For `COc1cc2c(cc1OC)C(c1ccc(S(=O)(=O)C(C)C)cc1)NCC2` (centres undefined), the T/C is, setting by setting: (dose: 50.0 mg/kg/injection, schedule: Q01DX009 (ip), vehicle: Klucel (hydroxypropylcellulose) (HPC)) 89 % of control; (dose: 100.0 mg/kg/injection, schedule: Q01DX009 (ip), vehicle: Klucel (hydroxypropylcellulose) (HPC)) 101 % of control; (dose: 200.0 mg/kg/injection, schedule: Q01DX009 (ip), vehicle: Klucel (hydroxypropylcellulose) (HPC)) 108 % of control.
Turning to `Clc1ccc(CNc2ncnc3[nH]ncc23)cc1Cl`, the T/C by setting is: under setting [2], 104 % of control; under setting [3], 100 % of control; under setting [4], 95 % of control.
On to `Cc1ccc(S(=O)(=O)NN=C2[C@H]3CC=CC[C@H]3C(=NNS(=O)(=O)c3ccc(C)cc3)[C@@H]3CC=CC[C@H]23)cc1`, for which the T/C under setting [5] is 90 % of control, the T/C under setting [6] is 87 % of control and the T/C under setting [7] was 103 % of control.
Turning to `Cc1cc(C)c(C(=O)CCl)c(C)c1C(=O)CCl`, the T/C is, setting by setting: under setting [17], 102 % of control; under setting [18], 110 % of control; under setting [19], 109 % of control.
Turning to `O=C1Cn2c(c3c(nc2=O)CCCC3)N1`, the T/C was 100 % of control under setting [8], 99 % of control under setting [9] and 100 % of control under setting [10].
Consider `CC(C)(C)C1=CC(=CC=C2C=CN(CCO)C=C2)C=C(C(C)(C)C)C1=O`, for which the T/C is, setting by setting: (dose: 7.5 mg/kg/injection, schedule: Q01DX005 (ip), vehicle: saline with Tween-80) 105 % of control; under setting [20], 98 % of control; under setting [21], 104 % of control.
In the case of `COc1cc(/C=C2\SC(=S)N(c3ccc(Cl)c(Cl)c3)C2=O)ccc1O`, the T/C is 89 % of control under setting [14], 86 % of control under setting [15] and 89 % of control under setting [16].
For `COC(=O)C1(CC(=O)c2ccccn2)NC(=S)NC(=O)C1C#N` (centres undefined), the T/C under setting [8] was 100 % of control, the T/C under setting [9] was 97 % of control and the T/C under setting [10] was 97 % of control.
Take `CC(C)(CS)C(=O)O`: the T/C under setting [1] was 103 % of control.
For `O=S(=O)(O)C1=CC(=N/Cl)/C=CC/1=N\Cl`, the T/C reads like this: under setting [11], 114 % of control and 116 % of control and 119 % of control; under setting [12], 104 % of control and 121 % of control and 124 % of control; under setting [13], 107 % of control and 116 % of control and 121 % of control; (dose: 400.0 mg/kg/injection, schedule: Q01DX005 (ip), vehicle: saline) 106 % of control.
